Experimental data taken from ChEMBL document CHEMBL1743141, “Membrane transporters in drug development” (Nat Rev Drug Discov, 2010).

Key:
Type in all cases: ADME
[1] = biological target: T1, ATP-binding cassette sub-family C member 4 (Homo sapiens, UniProt O15439); assay: Substrates of transporters of clinical importance in the absorption and disposition of drugs, MRP4
T1 sequence (O15439 whole entry): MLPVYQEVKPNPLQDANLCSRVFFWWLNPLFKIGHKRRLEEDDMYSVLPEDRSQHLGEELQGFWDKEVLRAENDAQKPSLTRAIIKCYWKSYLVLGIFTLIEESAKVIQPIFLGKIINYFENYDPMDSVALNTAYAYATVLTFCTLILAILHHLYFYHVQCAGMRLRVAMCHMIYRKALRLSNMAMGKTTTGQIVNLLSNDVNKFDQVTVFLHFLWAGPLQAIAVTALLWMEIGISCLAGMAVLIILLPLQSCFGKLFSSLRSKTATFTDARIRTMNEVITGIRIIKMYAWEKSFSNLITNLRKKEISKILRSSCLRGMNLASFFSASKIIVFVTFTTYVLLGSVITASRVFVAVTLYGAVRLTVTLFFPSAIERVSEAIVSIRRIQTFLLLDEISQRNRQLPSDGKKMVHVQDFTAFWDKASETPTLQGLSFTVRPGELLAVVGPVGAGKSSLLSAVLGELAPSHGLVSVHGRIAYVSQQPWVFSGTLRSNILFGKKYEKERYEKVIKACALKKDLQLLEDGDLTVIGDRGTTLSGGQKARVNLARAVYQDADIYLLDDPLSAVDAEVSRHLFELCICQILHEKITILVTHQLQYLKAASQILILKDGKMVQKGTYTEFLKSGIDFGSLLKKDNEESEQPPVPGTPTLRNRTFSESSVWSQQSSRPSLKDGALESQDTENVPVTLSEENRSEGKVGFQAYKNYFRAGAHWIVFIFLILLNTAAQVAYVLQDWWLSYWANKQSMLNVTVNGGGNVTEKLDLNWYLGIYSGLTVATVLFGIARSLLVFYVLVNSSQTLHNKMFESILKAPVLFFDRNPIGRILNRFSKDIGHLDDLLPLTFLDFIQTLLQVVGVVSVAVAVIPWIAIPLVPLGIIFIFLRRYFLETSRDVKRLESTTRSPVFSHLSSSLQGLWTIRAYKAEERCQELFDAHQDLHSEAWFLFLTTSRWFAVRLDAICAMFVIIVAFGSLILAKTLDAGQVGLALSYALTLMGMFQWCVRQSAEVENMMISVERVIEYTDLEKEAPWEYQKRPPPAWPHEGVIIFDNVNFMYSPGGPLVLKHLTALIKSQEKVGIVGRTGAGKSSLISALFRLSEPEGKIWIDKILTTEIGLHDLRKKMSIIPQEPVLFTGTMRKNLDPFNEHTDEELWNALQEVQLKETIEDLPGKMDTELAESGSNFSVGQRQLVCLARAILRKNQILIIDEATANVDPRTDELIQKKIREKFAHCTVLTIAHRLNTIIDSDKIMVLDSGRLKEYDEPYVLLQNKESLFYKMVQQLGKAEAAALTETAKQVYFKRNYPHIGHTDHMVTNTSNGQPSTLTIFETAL

[2] = biological target: T2, Solute carrier family 22 member 6 (Homo sapiens, UniProt Q4U2R8); assay: Substrates of transporters of clinical importance in the absorption and disposition of drugs, OAT1
T2 sequence (Q4U2R8 whole entry): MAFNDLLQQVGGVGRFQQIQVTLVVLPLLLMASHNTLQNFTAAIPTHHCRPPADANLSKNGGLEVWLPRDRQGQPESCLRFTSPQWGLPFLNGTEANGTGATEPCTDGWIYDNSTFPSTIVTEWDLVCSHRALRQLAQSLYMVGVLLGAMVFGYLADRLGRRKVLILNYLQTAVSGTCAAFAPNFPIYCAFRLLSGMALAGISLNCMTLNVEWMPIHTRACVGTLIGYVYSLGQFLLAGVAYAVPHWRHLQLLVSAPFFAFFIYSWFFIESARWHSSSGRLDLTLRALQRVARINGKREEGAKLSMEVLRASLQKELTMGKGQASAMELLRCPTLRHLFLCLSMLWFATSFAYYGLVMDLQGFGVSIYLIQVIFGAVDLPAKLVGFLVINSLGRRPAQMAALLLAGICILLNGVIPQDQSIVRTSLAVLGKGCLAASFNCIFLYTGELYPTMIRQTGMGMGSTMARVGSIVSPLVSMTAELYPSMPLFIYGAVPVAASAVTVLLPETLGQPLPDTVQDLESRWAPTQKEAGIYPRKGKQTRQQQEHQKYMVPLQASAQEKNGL

[3] = biological target: T3, Organic anion transporter 3 (Homo sapiens, UniProt Q8TCC7); assay: Substrates of transporters of clinical importance in the absorption and disposition of drugs, OAT3
T3 sequence (Q8TCC7 whole entry): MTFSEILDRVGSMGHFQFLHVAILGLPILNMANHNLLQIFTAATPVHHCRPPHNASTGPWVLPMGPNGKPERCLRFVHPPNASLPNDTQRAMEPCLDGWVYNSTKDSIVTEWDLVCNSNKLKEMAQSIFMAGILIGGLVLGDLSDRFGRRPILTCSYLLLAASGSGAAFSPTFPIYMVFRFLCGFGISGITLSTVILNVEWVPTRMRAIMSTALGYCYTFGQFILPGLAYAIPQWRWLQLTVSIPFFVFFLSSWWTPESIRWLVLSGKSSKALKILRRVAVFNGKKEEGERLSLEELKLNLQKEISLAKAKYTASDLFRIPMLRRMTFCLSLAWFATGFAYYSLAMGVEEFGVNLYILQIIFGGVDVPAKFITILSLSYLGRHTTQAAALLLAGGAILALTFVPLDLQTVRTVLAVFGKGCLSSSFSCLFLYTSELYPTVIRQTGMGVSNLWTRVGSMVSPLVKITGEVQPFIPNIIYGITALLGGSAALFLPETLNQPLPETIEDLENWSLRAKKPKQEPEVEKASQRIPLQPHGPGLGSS

[4] = biological target: T4, Solute carrier organic anion transporter family member 2B1 (Homo sapiens, UniProt O94956); assay: Substrates of transporters of clinical importance in the absorption and disposition of drugs, OATP2B1
T4 sequence (O94956 whole entry): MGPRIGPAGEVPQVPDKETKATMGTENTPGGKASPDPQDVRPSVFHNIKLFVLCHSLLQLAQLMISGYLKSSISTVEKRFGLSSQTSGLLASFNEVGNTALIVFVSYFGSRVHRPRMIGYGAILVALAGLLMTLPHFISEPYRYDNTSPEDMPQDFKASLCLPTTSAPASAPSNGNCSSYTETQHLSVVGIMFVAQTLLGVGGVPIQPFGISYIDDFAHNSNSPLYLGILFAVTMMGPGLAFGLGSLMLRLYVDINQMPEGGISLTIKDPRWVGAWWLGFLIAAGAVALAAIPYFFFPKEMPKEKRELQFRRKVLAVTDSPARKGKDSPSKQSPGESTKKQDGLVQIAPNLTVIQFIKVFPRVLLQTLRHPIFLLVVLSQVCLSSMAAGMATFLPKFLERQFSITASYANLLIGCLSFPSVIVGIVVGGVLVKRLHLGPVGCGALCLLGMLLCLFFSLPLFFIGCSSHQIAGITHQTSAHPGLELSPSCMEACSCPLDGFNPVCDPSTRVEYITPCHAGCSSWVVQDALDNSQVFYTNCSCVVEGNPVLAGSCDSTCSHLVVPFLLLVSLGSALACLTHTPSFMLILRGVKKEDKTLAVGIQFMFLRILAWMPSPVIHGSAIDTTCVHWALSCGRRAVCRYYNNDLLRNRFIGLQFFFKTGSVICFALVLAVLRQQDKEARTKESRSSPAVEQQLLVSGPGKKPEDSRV

SMILES | Activity [1] | Activity [2] | Activity [3] | other results
Nc1ncnc2c1ncn2CCOCP(=O)(O)O [ADEFOVIR] | transporter substrate | transporter substrate | – | –
CCCCNc1cc(C(=O)O)cc(S(N)(=O)=O)c1Oc1ccccc1 [BUMETANIDE] | – | – | transporter substrate | –
N[C@@H](C(=O)N[C@@H]1C(=O)N2C(C(=O)O)=C(Cl)CS[C@H]12)c1ccccc1 [CEFACLOR ANHYDROUS] | – | – | transporter substrate | –
Nc1ccn(C[C@@H](CO)OCP(=O)(O)O)c(=O)n1.O.O [CIDOFOVIR] | – | transporter substrate | – | –
NS(=O)(=O)c1cc(C(=O)O)c(NCc2ccco2)cc1Cl [FUROSEMIDE] | transporter substrate | – | transporter substrate | –
COc1ccc(Cl)cc1C(=O)NCCc1ccc(S(=O)(=O)NC(=O)NC2CCCCC2)cc1 [GLYBURIDE] | – | – | – | Activity [4]: transporter substrate
C[C@H](Cn1cnc2c(N)ncnc21)OCP(=O)(O)O [TENOFOVIR ANHYDROUS] | transporter substrate | transporter substrate | – | –

Continued, in another order:

Activity [1] | Activity [2] | Activity [3] | SMILES | other results
– | – | transporter substrate | CO/N=C(\C(=O)N[C@@H]1C(=O)N2C(C(=O)O)=CCS[C@H]12)c1csc(N)n1 [CEFTIZOXIME] | –
– | transporter substrate | – | Nc1ccn([C@H]2CC[C@@H](CO)O2)c(=O)n1 [ZALCITABINE] | –
– | transporter substrate | – | Cc1cn([C@H]2C[C@H](N=[N+]=[N-])[C@@H](CO)O2)c(=O)[nH]c1=O [ZIDOVUDINE] | –
